The source of these data is US12291519B2, “2-hydroxycycloalkane-1-carbamoyl” (Idorsia Pharmaceuticals Ltd, priority 2019, dated 2025).

One experiment deals with human Gal-3 (hGal-3) (Homo sapiens (Human), UniProt P17931). In words: Competitive binding assay: biotinylated hGal-3 binding to microplate-adsorbed asialofetuin (ASF). To be noted: Activity on hGal-3; binding of biotinylated hGal-3 to ASF-coated plates; mean values. Summed up:
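Serially diluted compounds competed with biotinylated human Gal-3 for binding to plate-adsorbed asialofetuin over 3 h at 4 °C. Bound Gal-3 was detected with streptavidin-peroxidase (80 ng/mL, 1 h, 4 °C) and ABTS substrate. IC50 values are means of several measurements.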

Experiment [1] has as its target human Gal-1 (hGal-1) (Homo sapiens, UniProt P09382). In words: Competitive binding assay: biotinylated hGal-1 binding to microplate-adsorbed asialofetuin (ASF). To be noted: Activity on hGal-1; binding of biotinylated hGal-1 to ASF-coated plates; mean values. Summed up:
(§1)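 Inhibition measured as loss of hGal-1 (biotinylated, 300–1000 ng/mL, wild type or Cys→Ser mutant) binding to adsorbed asialofetuin over 3 h at 4 °C. Bound lectin detected with streptavidin-HRP and ABTS (410 nm, 30–45 min); IC50 values averaged across repeat measurements.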

The target in experiment [2] is human Gal-1 (hGal-1). The experiment is described as above. To be noted: Activity on hGal-1; binding of biotinylated hGal-1 to ASF-coated plates; mean values. Summed up: as §1
Sequence of human Gal-1 (hGal-1) (P09382 2-135 limits assumed): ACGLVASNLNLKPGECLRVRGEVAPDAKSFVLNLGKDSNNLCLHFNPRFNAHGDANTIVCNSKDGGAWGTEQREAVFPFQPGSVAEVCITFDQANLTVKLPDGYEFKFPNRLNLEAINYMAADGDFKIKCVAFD

Sequence of human Gal-3 (hGal-3) (P17931 whole entry): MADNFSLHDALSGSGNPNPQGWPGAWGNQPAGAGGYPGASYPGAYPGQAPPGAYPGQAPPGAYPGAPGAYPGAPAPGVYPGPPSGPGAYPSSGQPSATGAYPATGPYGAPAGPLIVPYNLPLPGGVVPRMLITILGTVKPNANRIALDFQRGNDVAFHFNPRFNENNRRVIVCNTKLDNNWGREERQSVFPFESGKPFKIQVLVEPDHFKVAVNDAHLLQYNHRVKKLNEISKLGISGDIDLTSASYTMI
Sequence of human Gal-1 (hGal-1) (Homo sapiens, UniProt P09382) (P09382 2-135 limits assumed): as the sequence (P09382 2-135 limits assumed) above

By IC50 is commonly meant the concentration that gives 50% inhibition. A lower IC50 goes with greater potency in that assay. For the molecule `CO[C@@H]1[C@@H](n2cc(-c3cc(F)c(C)c(F)c3)nn2)[C@@H](O)[C@@H](CO)O[C@H]1C(=O)N(c1cc(F)cc(Br)c1)[C@H]1CCCC[C@@H]1O` [Example 160, (2R,3R,4S,5R,6R)-N-(3-bromo-5-fluorophenyl)-4-(4-(3,5-difluoro-4-methylphenyl)-1H-1,2,3-triazol-1-yl)-5-hydroxy-N-((1S,2S)-2-hydroxycyclohexyl)-6-(hydroxymethyl)-3-methoxytetrahydro-2H-pyran-2-carboxamide], the IC50 at human Gal-3 (hGal-3) is 11 nM; on human Gal-1 (hGal-1) [1] it was 1770 nM.

As for `CO[C@@H]1[C@@H](n2cc(-c3nc(Cl)cs3)nn2)[C@@H](O)[C@@H](CO)O[C@H]1C(=O)N(c1cccc(F)c1F)[C@H]1CCCC[C@@H]1O` [Example 193, (2R,3R,4S,5R,6R)-4-(4-(4-chlorothiazol-2-yl)-1H-1,2,3-triazol-1-yl)-N-(2,3-difluorophenyl)-5-hydroxy-N-((1S,2S)-2-hydroxycyclohexyl)-6-(hydroxymethyl)-3-methoxytetrahydro-2H-pyran-2-carboxamide], the IC50 at human Gal-3 (hGal-3) came out at 143 nM; at human Gal-1 (hGal-1) [2], 605 nM.

Take `CO[C@@H]1[C@@H](n2cc(-c3cc(F)c(F)c(F)c3)nn2)[C@@H](O)[C@@H](CO)O[C@H]1C(=O)N(c1ccccn1)[C@H]1CCCC[C@@H]1O` [Example 194, (2R,3R,4S,5R,6R)-5-hydroxy-N-((1S,2S)-2-hydroxycyclohexyl)-6-(hydroxymethyl)-3-methoxy-N-(pyridin-2-yl)-4-(4-(3,4,5-trifluorophenyl)-1H-1,2,3-triazol-1-yl)tetrahydro-2H-pyran-2-carboxamide]: the IC50 on human Gal-3 (hGal-3) amounted to 11 nM; at human Gal-1 (hGal-1) [2] it was 2740 nM.

Take `O=C(O)CO[C@@H]1[C@@H](n2cc(-c3cc(F)c(F)c(F)c3)nn2)[C@@H](O)[C@@H](CO)O[C@H]1C(=O)N(c1cc(Cl)cc(Cl)c1)[C@H]1CCCC[C@@H]1O` [Example 195, 2-(((2R,3R,4S,5R,6R)-2-((3,5-dichlorophenyl)((1S,2S)-2-hydroxycyclohexyl)carbamoyl)-5-hydroxy-6-(hydroxymethyl)-4-(4-(3,4,5-trifluorophenyl)-1H-1,2,3-triazol-1-yl)tetrahydro-2H-pyran-3-yl)oxy)acetic acid]: the IC50 was 9 nM on human Gal-3 (hGal-3) and 96 nM on human Gal-1 (hGal-1) [2].

As for `CO[C@@H]1[C@@H](n2cc(-c3cc(F)c(F)c(F)c3)nn2)[C@@H](O)[C@@H](CO)O[C@H]1C(=O)N(c1ccc2ccccc2c1)[C@H]1CCCC[C@@H]1O` [Example 197, (2R,3R,4S,5R,6R)-5-hydroxy-N-((1S,2S)-2-hydroxycyclohexyl)-6-(hydroxymethyl)-3-methoxy-N-(naphthalen-2-yl)-4-(4-(3,4,5-trifluorophenyl)-1H-1,2,3-triazol-1-yl)tetrahydro-2H-pyran-2-carboxamide], the IC50 came out at 97 nM at human Gal-3 (hGal-3) and 6830 nM at human Gal-1 (hGal-1) [2].

Turning to `CO[C@@H]1[C@@H](n2cc(-c3cc(F)c(F)c(F)c3)nn2)[C@@H](O)[C@@H](CO)O[C@H]1C(=O)N(c1cccc2ccccc12)[C@H]1CCCC[C@@H]1O` [Example 198, (2R,3R,4S,5R,6R)-5-hydroxy-N-((1S,2S)-2-hydroxycyclohexyl)-6-(hydroxymethyl)-3-methoxy-N-(naphthalen-1-yl)-4-(4-(3,4,5-trifluorophenyl)-1H-1,2,3-triazol-1-yl)tetrahydro-2H-pyran-2-carboxamide], the IC50 was 117 nM on human Gal-3 (hGal-3) and > 100000 nM at human Gal-1 (hGal-1) [2].

In the case of `CO[C@@H]1[C@@H](n2cc(-c3cc(F)c(F)c(F)c3)nn2)[C@@H](O)[C@@H](CO)O[C@H]1C(=O)N(c1cc(C)n(C)n1)[C@H]1CCCC[C@@H]1O` [Example 199, (2R,3R,4S,5R,6R)-N-(1,5-dimethyl-1H-pyrazol-3-yl)-5-hydroxy-N-((1S,2S)-2-hydroxycyclohexyl)-6-(hydroxymethyl)-3-methoxy-4-(4-(3,4,5-trifluorophenyl)-1H-1,2,3-triazol-1-yl)tetrahydro-2H-pyran-2-carboxamide], the IC50 on human Gal-3 (hGal-3) is 321 nM; on human Gal-1 (hGal-1) [2], 18000 nM.

For `CO[C@@H]1[C@@H](n2cc(-c3ccc(C)c(F)c3)nn2)[C@@H](O)[C@@H](CO)O[C@H]1C(=O)N(c1cc(Br)cc(C#N)c1)[C@H]1CCCC[C@@H]1O` [Example 200, (2R,3R,4S,5R,6R)-N-(3-bromo-5-cyanophenyl)-4-(4-(3-fluoro-4-methylphenyl)-1H-1,2,3-triazol-1-yl)-5-hydroxy-N-((1S,2S)-2-hydroxycyclohexyl)-6-(hydroxymethyl)-3-methoxytetrahydro-2H-pyran-2-carboxamide], the IC50 came out at 8 nM at human Gal-3 (hGal-3) and 158 nM at human Gal-1 (hGal-1) [2].

With `CO[C@@H]1[C@@H](n2cc(-c3ccc(Cl)cc3)nn2)[C@@H](O)[C@@H](CO)O[C@H]1C(=O)N(c1cc(Cl)cc(C#N)c1)[C@H]1CCCC[C@@H]1O` [Example 201, (2R,3R,4S,5R,6R)-N-(3-chloro-5-cyanophenyl)-4-(4-(4-chlorophenyl)-1H-1,2,3-triazol-1-yl)-5-hydroxy-N-((1S,2S)-2-hydroxycyclohexyl)-6-(hydroxymethyl)-3-methoxytetrahydro-2H-pyran-2-carboxamide], the IC50 was 20 nM at human Gal-3 (hGal-3) and 242 nM at human Gal-1 (hGal-1) [2].

Regarding `CO[C@@H]1[C@@H](n2cc(-c3ccc(Br)cc3)nn2)[C@@H](O)[C@@H](CO)O[C@H]1C(=O)N(c1cc(Cl)cc(C#N)c1)[C@H]1CCCC[C@@H]1O` [Example 202, (2R,3R,4S,5R,6R)-4-(4-(4-bromophenyl)-1H-1,2,3-triazol-1-yl)-N-(3-chloro-5-cyanophenyl)-5-hydroxy-N-((1S,2S)-2-hydroxycyclohexyl)-6-(hydroxymethyl)-3-methoxytetrahydro-2H-pyran-2-carboxamide], the IC50 at human Gal-3 (hGal-3) was found to be 21 nM; at human Gal-1 (hGal-1) [2], 341 nM.

On to `CO[C@@H]1[C@@H](n2cc(-c3cc(F)c(N4CCOCC4)c(F)c3)nn2)[C@@H](O)[C@@H](CO)O[C@H]1C(=O)N(c1cc(Cl)cc(Cl)c1)[C@H]1CCCC[C@@H]1O` [Example 203], for which the IC50 on human Gal-3 (hGal-3) is 24 nM; at human Gal-1 (hGal-1) [2] it was 678 nM.

Consider `CO[C@@H]1[C@@H](n2cc(-c3cc(F)c(NCCCO)c(F)c3)nn2)[C@@H](O)[C@@H](CO)O[C@H]1C(=O)N(c1cc(Cl)cc(Cl)c1)[C@H]1CCCC[C@@H]1O` [Example 204, (2R,3R,4S,5R,6R)—N-(3,5-dichlorophenyl)-4-(4-(3,5-difluoro-4-((3-hydroxypropyl)amino)phenyl)-1H-1,2,3-triazol-1-yl)-5-hydroxy-N-((1S,2S)-2-hydroxycyclohexyl)-6-(hydroxymethyl)-3-methoxytetrahydro-2H-pyran-2-carboxamide], for which the values for the IC50 on human Gal-3 (hGal-3) and at human Gal-1 (hGal-1) [2] were 21 nM and 273 nM, respectively.

Consider `COc1cc(C#N)cc(N(C(=O)[C@@H]2O[C@H](CO)[C@H](O)[C@H](n3cc(-c4ccc(C#N)c(F)c4)nn3)[C@H]2OC)[C@H]2CCCC[C@@H]2O)c1` [Example 205, (2R,3R,4S,5R,6R)-4-(4-(4-cyano-3-fluorophenyl)-1H-1,2,3-triazol-1-yl)-N-(3-cyano-5-methoxyphenyl)-5-hydroxy-N-((1S,2S)-2-hydroxycyclohexyl)-6-(hydroxymethyl)-3-methoxytetrahydro-2H-pyran-2-carboxamide], for which the IC50 was 87 nM at human Gal-3 (hGal-3) and 1820 nM at human Gal-1 (hGal-1) [2].

`CO[C@@H]1[C@@H](n2cc(-c3ccc(C#N)c(F)c3)nn2)[C@@H](O)[C@@H](CO)O[C@H]1C(=O)N(c1cc(C)cc(C#N)c1)[C@H]1CCCC[C@@H]1O` [Example 206, (2R,3R,4S,5R,6R)-4-(4-(4-cyano-3-fluorophenyl)-1H-1,2,3-triazol-1-yl)-N-(3-cyano-5-methylphenyl)-5-hydroxy-N-((1S,2S)-2-hydroxycyclohexyl)-6-(hydroxymethyl)-3-methoxytetrahydro-2H-pyran-2-carboxamide]: the IC50 on human Gal-3 (hGal-3) worked out at 126 nM; on human Gal-1 (hGal-1) [2], 1340 nM.

On to `CO[C@@H]1[C@@H](n2cc(-c3cc(F)c(F)c(F)c3)nn2)[C@@H](O)[C@@H](CO)O[C@H]1C(=O)N(c1cccc(Cl)c1)[C@H]1CCCCC[C@@H]1O` [Example 207, (2R,3R,4S,5R,6R)-N-(3-chlorophenyl)-5-hydroxy-N-((1S,2S)-2-hydroxycycloheptyl)-6-(hydroxymethyl)-3-methoxy-4-(4-(3,4,5-trifluorophenyl)-1H-1,2,3-triazol-1-yl)tetrahydro-2H-pyran-2-carboxamide], for which the figures for the IC50 on human Gal-3 (hGal-3) and at human Gal-1 (hGal-1) [2] were 49 nM and 1790 nM, respectively.

With `CO[C@@H]1[C@@H](n2cc(-c3cc(F)c(F)c(F)c3)nn2)[C@@H](O)[C@@H](CO)O[C@H]1C(=O)N(c1cc(Cl)cc(Cl)c1)[C@H]1CCCCC[C@@H]1O` [Example 208, (2R,3R,4S,5R,6R)-N-(3,5-dichlorophenyl)-5-hydroxy-N-((1S,2S)-2-hydroxycycloheptyl)-6-(hydroxymethyl)-3-methoxy-4-(4-(3,4,5-trifluorophenyl)-1H-1,2,3-triazol-1-yl)tetrahydro-2H-pyran-2-carboxamide], the IC50 on human Gal-3 (hGal-3) is 62 nM; on human Gal-1 (hGal-1) [2], 586 nM.

On to “(2R,3R,5R,6R)—N-(3,5-dichlorophenyl)-5-hydroxy-N-(1S,2S)-2-hydroxycyclohexyl-3-(2-hydroxyethoxy)-6-(hydroxymethyl)-4-(4-(3,4,5-trifluorophenyl)-1H-1,2,3-triazol-1-yl)tetrahydro-2H-pyran-2-carboxamide [Example 196]”, for which the IC50 at human Gal-3 (hGal-3) was found to be 21 nM; on human Gal-1 (hGal-1) [1] it was 161 nM.
